From the supplement of paper PMC13207355

Experiments:
Conditions in all cases: exposure time: 72 h
E28 [1] = patient-derived glioblastoma stem cells of classical subtype; experiment: surviving fraction (nuclei count normalised to DMSO); higher = more cells surviving (less toxic)
E34 [2] = patient-derived glioblastoma stem cells of proneural subtype; experiment: as above
E13 [3] = patient-derived glioblastoma stem cells of classical subtype; experiment: as above
E21 [4] = patient-derived glioblastoma stem cells of mesenchymal subtype; experiment: as above
E57 [5] = patient-derived glioblastoma stem cells of mesenchymal subtype; experiment: as above
FT3469 [6] = normal neural stem cell line; experiment: as above
E31 [7] = patient-derived glioblastoma stem cells of proneural subtype; experiment: as above
E28 [8] = experiment: phenotypic distance (Euclidean, principal components) from DMSO controls (arbitrary units); higher = stronger morphological change
E34 [9] = experiment: as above
E13 [10] = experiment: as above
E21 [11] = experiment: as above
E57 [12] = experiment: as above
FT3469 [13] = experiment: as above
E31 [14] = experiment: as above
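Wherever phenotypic distance (Euclidean, principal components) from DMSO controls is given: cell Painting imaging in 384-well plates, CellProfiler features reduced to at least 20 principal components, Euclidean distance versus same-plate DMSO vehicle wells (0.1% v/v), median over six images per well.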
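Wherever surviving fraction (nuclei count normalised to DMSO) is given: nuclei counted by high-content imaging of Hoechst-stained cells in laminin-coated 384-well plates, relative to 0.1% DMSO vehicle wells, with staurosporine as cell-death control.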

CN1C(=O)OC(C)(C)C1=O [Trimethadione]
Conditions	phenotypic distance	surviving fraction
E13 [3], 4.1 nM	–	0.872
E13 [3], 12.3 nM	–	1.05
E13 [3], 37 nM	–	0.904
E13 [3], 111.1 nM	–	0.943
E13 [3], 333.3 nM	–	0.94
E13 [3], 1000 nM	–	1.07
E13 [3], 3000 nM	–	0.9
E13 [10], 4.1 nM	0.619	–
E13 [10], 12.3 nM	0.485	–
E13 [10], 37 nM	0.498	–
E13 [10], 111.1 nM	0.332	–
E13 [10], 333.3 nM	0.419	–
E13 [10], 1000 nM	0.395	–
E13 [10], 3000 nM	0.509	–
E21 [4], 4.1 nM	–	0.949
E21 [4], 12.3 nM	–	1.02
E21 [4], 37 nM	–	0.937
E21 [4], 111.1 nM	–	1.05
E21 [4], 333.3 nM	–	1.01
E21 [4], 1000 nM	–	0.949
E21 [4], 3000 nM	–	1.03
E21 [11], 4.1 nM	0.779	–
E21 [11], 12.3 nM	0.495	–
E21 [11], 37 nM	0.506	–
E21 [11], 111.1 nM	0.324	–
E21 [11], 333.3 nM	0.36	–
E21 [11], 1000 nM	0.29	–
E21 [11], 3000 nM	0.461	–
E28 [1], 4.1 nM	–	0.994
E28 [1], 12.3 nM	–	1.14
E28 [1], 37 nM	–	0.959
E28 [1], 111.1 nM	–	1.03
E28 [1], 333.3 nM	–	1
E28 [1], 1000 nM	–	1
E28 [1], 3000 nM	–	0.903
E28 [8], 4.1 nM	0.624	–
E28 [8], 12.3 nM	0.657	–
E28 [8], 37 nM	0.665	–
E28 [8], 111.1 nM	0.367	–
E28 [8], 333.3 nM	0.471	–
E28 [8], 1000 nM	0.385	–
E28 [8], 3000 nM	0.844	–
E31 [7], 4.1 nM	–	0.999
E31 [7], 12.3 nM	–	1.03
E31 [7], 37 nM	–	0.936
E31 [7], 111.1 nM	–	1.15
E31 [7], 333.3 nM	–	1.04
E31 [7], 1000 nM	–	1.01
E31 [7], 3000 nM	–	0.759
E31 [14], 4.1 nM	0.578	–
E31 [14], 12.3 nM	0.705	–
E31 [14], 37 nM	0.678	–
E31 [14], 111.1 nM	0.582	–
E31 [14], 333.3 nM	0.402	–
E31 [14], 1000 nM	0.343	–
E31 [14], 3000 nM	0.599	–
E34 [2], 4.1 nM	–	1.12
E34 [2], 12.3 nM	–	1.04
E34 [2], 37 nM	–	1.04
E34 [2], 111.1 nM	–	0.867
E34 [2], 333.3 nM	–	0.972
E34 [2], 1000 nM	–	0.961
E34 [2], 3000 nM	–	0.86
E34 [9], 4.1 nM	0.536	–
E34 [9], 12.3 nM	0.379	–
E34 [9], 37 nM	0.464	–
E34 [9], 111.1 nM	1.03	–
E34 [9], 333.3 nM	0.604	–
E34 [9], 1000 nM	0.565	–
E34 [9], 3000 nM	0.885	–
E57 [5], 4.1 nM	–	1.11
E57 [5], 12.3 nM	–	0.909
E57 [5], 37 nM	–	1.04
E57 [5], 111.1 nM	–	1.04
E57 [5], 333.3 nM	–	1
E57 [5], 1000 nM	–	0.96
E57 [5], 3000 nM	–	0.885
E57 [12], 4.1 nM	0.62	–
E57 [12], 12.3 nM	0.587	–
E57 [12], 37 nM	0.572	–
E57 [12], 111.1 nM	0.439	–
E57 [12], 333.3 nM	0.455	–
E57 [12], 1000 nM	1.11	–
E57 [12], 3000 nM	0.844	–
FT3469 [6], 4.1 nM	–	1.05
FT3469 [6], 12.3 nM	–	0.973
FT3469 [6], 37 nM	–	0.987
FT3469 [6], 111.1 nM	–	1.03
FT3469 [6], 333.3 nM	–	0.983
FT3469 [6], 1000 nM	–	1.03
FT3469 [6], 3000 nM	–	0.855
FT3469 [13], 4.1 nM	0.493	–
FT3469 [13], 12.3 nM	0.946	–
FT3469 [13], 37 nM	0.598	–
FT3469 [13], 111.1 nM	0.319	–
FT3469 [13], 333.3 nM	0.852	–
FT3469 [13], 1000 nM	0.673	–
FT3469 [13], 3000 nM	0.994	–
